Assay results taken from patent publication US20260374773A1, “MULTI-CYCLIC IRAK AND FLT3 INHIBITING COMPOUNDS AND USES THEREOF” (CHILDREN'S HOSPITAL MEDICAL CENTER, priority 2022, published 2026).

Columns and labels:
FLT3 = biological target: T1, FLT3 (Homo sapiens, UniProt P36888); assay: RBC HotSpot kinase inhibition assay, FLT3; type: biochemical; conditions: Table 17; isolated kinase, 33P-ATP, 2 h
T1 sequence (P36888 27-993): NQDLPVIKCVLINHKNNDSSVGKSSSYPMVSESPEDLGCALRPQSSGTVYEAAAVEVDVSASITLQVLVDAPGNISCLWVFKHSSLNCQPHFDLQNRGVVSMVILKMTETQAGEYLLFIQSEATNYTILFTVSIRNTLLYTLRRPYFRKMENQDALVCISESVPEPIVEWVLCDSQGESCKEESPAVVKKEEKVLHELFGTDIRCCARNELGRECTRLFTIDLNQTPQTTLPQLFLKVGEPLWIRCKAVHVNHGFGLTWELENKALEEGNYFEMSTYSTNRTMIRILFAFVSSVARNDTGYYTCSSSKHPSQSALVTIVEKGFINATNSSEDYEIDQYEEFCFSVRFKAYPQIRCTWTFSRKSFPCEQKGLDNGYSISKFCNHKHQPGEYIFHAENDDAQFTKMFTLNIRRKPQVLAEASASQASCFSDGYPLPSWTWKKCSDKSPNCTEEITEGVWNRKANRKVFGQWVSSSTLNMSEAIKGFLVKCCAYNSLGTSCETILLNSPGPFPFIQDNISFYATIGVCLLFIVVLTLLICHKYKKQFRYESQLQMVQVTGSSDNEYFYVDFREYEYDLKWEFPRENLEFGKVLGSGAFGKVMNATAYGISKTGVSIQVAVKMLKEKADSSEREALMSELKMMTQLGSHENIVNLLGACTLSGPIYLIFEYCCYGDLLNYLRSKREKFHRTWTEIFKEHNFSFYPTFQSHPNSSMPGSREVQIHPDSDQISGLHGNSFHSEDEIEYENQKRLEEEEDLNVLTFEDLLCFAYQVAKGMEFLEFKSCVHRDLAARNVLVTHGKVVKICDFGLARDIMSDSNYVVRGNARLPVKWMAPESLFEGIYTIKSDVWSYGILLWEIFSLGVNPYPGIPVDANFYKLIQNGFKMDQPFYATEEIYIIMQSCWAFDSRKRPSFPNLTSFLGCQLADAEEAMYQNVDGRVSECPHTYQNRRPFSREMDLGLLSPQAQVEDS
Text: (§1) This assay uses the isolated kinase enzyme. This assay is very useful for determining competition of the inhibitor for ATP and/or substrates and for measuring the kinetics of enzyme inhibition. […] Unlike kinase binding assays that measure competition for ATP, the HotSpot Kinase Assay is a functional assay that measures catalytic activity; as such it measures relative functional potency regardless of the mechanism of enzyme inhibition. This assay uses the form of the various enzymes that are easiest to express, which may not necessarily be the form of the enzyme that exist in the cell. (Sometimes the carboxy terminus has been truncated to aid in expression, or, if it is a receptor kinase, the enzyme itself is isolated from the other parts of the receptor that are involved in regulating kinase activity.)
(§2) The reagent used was as follows: Base Reaction buffer; 20 mM Hepes (pH 7.5), 10 mM MgCl2, 1 mM EGTA, 0.01% Brij35, 0.02 mg/ml BSA, 0.1 mM Na3VO4, 2 mM DTT, 1% DMSO. Required cofactors were added individually to each kinase reaction.
(§3) The reaction procedure was as follows: • 1) Substrates were prepared in freshly prepared Reaction Buffer. • 2) Any required cofactors were delivered to the substrate solution above. • 3) Kinase was delivered into the substrate solution and gently mixed. • 4) Compounds were delivered in 100% DMSO into the kinase reaction mixture by Acoustic technology (Echo550; nanoliter range), followed by incubation for 20 min at room temp. • 5) ^33P-ATP was delivered into the reaction mixture to initiate the reaction. • 6) The mixture was incubated for 2 hours at room temperature. • 7) Kinase activity was detected by P81 filter-binding method.
as §1, with “Although not wishing to be limited by theory, it is believed that sometimes” for “(Sometimes”, “activity.” for “activity.)”
(§4) The reagent used was as follows: Base Reaction buffer; 20 mM Hepes (pH 7.5), 10 mM MgCl2, 1 mM EGTA, 0.01% Brij35, 0.02 mg/ml BSA, 0.1 mM Na3 VO4, 2 mM DTT, 1% DMSO.
(§5) Required cofactors were added individually to each kinase reaction.
as §3, with “33P-ATP” for “^33P-ATP”

MOLM14 F691L cells = assay: MOLM14 F691L cell viability (Cell Titer Glo); type: cell-based; conditions: Homo sapiens, MOLM-14, Table 22, 48 h
Procedure: (§6) Both cell lines have activated FLT3 receptors, each of which carry additional resistance mutations in the kinase domain (D835Y and F691L, respectively).
(§7) MOLM14 D835Y and MOLM14 F691L cells were grown in RPMI-1640 media supplemented with 20% fetal bovine serum (FBS). For viability/cytotoxicity assessments, cells were seeded into 1536-well white polystyrene tissue culture-treated Greiner plates using a Multidrop Combi dispenser (ThermoFisher), in final volume 5 μL of growth media per well, at a density of 1000 cells per well. After cell addition, 23 nL of test compound were transferred into individual wells (22 doses tested for each test compound, with a 1:2 dilution series starting at 10 μM) via a 1536 pin-tool. Bortezomib (final concentration 2.3 μM) was used as a positive control for cell cytotoxicity. Plates were incubated for 48 hours at standard incubator conditions covered by a stainless steel gasketed lid to prevent evaporation. 48 hours post compound addition, 3 μL of Cell Titer Glo (Promega) were added to each well and plates were incubated at room temperature for 15 minutes with the stainless-steel lid in place. Luminescence readings were taken using a Viewlux imager (PerkinElmer) with a 2 second exposure time per plate.

IRAK1 = IRAK1 (Homo sapiens, UniProt P51617); assay: RBC HotSpot kinase inhibition assay, IRAK1; type: biochemical; conditions: Table 17; isolated kinase, 33P-ATP, 2 h
Text: as §1, §2, §3
as §1, with “Although not wishing to be limited by theory, it is believed that sometimes” for “(Sometimes”, “activity.” for “activity.)”
as §4, §5
as §3, with “33P-ATP” for “^33P-ATP”

IRAK4 = biological target: T2, IRAK4 (Homo sapiens, UniProt Q9NWZ3); assay: RBC HotSpot kinase inhibition assay, IRAK4; type: biochemical; conditions: Table 17; isolated kinase, 33P-ATP, 2 h
T2 sequence (Q9NWZ3 1-460): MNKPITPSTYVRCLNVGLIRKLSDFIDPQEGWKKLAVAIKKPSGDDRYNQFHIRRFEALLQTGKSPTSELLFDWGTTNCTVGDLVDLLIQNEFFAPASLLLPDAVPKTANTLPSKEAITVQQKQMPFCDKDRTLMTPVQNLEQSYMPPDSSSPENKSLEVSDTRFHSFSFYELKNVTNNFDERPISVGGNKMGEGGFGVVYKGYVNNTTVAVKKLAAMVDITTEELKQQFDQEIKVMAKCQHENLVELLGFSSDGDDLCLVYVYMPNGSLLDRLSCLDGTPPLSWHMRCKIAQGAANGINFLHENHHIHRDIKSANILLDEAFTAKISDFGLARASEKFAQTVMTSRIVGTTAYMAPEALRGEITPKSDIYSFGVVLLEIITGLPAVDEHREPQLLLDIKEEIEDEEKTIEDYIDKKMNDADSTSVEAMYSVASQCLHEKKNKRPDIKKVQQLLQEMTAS
Text: as §1, §2, §3
as §1, with “Although not wishing to be limited by theory, it is believed that sometimes” for “(Sometimes”, “activity.” for “activity.)”
as §4, §5
as §3, with “33P-ATP” for “^33P-ATP”

MOLM14 D835Y cells = assay: MOLM14 D835Y cell viability (Cell Titer Glo); type: cell-based; conditions: Homo sapiens, MOLM-14, Table 22, 48 h
Procedure: as §6, §7
This cell line has activated FLT3 receptors, which carries an additional resistance mutation in the kinase domain at D835Y.
as §7, with “D835Y” for “D835Y and MOLM14 F691L”, “mL” for “μL”, “mM)” for “μM)”

NF-κB [1] = assay: NF-κB SEAP reporter assay in THP-1-Blue NF-κB cells, hIL1B stimulated; type: cell-based; conditions: Table 21; THP-1-Blue cells, 1 ng/ml hIL1B, 24 h; read-out: NF-κB IL1B IC50
Procedure: (§8) THP-1-Blue NF-κB cells (InvivoGen) carrying a stable integrated NF-κB-inducible secreted embryonic alkaline phosphatase (SEAP) reporter construct were plated at a concentration of 1×10^5 cells per well. The cells were stimulated with Pam3CSK4 (1 ng/ml) or hIL1B (1 ng/ml). After 10-20 minutes, the cells were then treated with vehicle (DMSO) or serial dilutions of the test compounds (10 doses tested for each test compound, with a […] starting at 1 μM or 3 μM) with a final volume of 200 μL for 24 hours at 37 °C. After 24 hours, the cells were centrifuged and 20 μL supernatant was incubated with 180 μL QUANTI-Blue reagent at 37 °C for 30-60 minutes. The levels of NF-κB-induced was measured in a microplate reader at 620 nm.
as §8, with “1 mM” for “1 μM”, “3 mM)” for “3 μM)”, “200 mL” for “200 μL”, “20 mL” for “20 μL”, “180 mL” for “180 μL”, “NF-κB-induced gene expression were” for “NF-κB-induced was”

NF-κB [2] = assay: NF-κB SEAP reporter assay in THP-1-Blue NF-κB cells, Pam3CSK4 stimulated; type: cell-based; conditions: Table 21; THP-1-Blue cells, 1 ng/ml Pam3CSK4, 24 h; read-out: NF-κB Pam3SCK4 IC50
Procedure: as §8
as §8, with “1 mM” for “1 μM”, “3 mM)” for “3 μM)”, “200 mL” for “200 μL”, “20 mL” for “20 μL”, “180 mL” for “180 μL”, “NF-κB-induced gene expression were” for “NF-κB-induced was”

IRAK1, sequence (P51617 whole entry): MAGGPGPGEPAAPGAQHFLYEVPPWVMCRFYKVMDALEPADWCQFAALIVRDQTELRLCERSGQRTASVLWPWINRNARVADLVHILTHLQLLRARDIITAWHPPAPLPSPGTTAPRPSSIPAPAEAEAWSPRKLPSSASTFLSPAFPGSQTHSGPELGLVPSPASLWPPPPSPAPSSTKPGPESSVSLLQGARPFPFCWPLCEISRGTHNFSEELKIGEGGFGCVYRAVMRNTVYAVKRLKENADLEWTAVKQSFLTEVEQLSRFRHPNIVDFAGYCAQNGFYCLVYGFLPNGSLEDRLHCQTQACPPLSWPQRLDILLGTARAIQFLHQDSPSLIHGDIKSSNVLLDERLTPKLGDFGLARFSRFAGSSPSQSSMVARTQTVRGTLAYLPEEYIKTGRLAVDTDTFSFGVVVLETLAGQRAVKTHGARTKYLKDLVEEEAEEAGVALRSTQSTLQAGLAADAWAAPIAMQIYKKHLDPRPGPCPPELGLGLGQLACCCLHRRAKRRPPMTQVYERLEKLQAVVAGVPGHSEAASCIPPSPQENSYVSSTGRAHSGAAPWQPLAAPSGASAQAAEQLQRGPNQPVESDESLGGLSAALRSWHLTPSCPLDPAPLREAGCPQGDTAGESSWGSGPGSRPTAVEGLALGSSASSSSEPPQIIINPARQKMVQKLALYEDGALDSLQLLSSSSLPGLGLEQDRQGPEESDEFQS

| IC50 (FLT3) [nM] | IC50 (MOLM14 F691L cells) [nM] | IC50 (IRAK1) [nM] | IC50 (IRAK4) [nM] | IC50 (MOLM14 D835Y cells) [nM] | IC50 (NF-κB [1]) [nM] | IC50 (NF-κB [2]) [nM] | SMILES |
| --- | --- | --- | --- | --- | --- | --- | --- |
| 8 | 1790 | 365 | 127 | 159 | – | – | COc1cn2ncc(-c3ccnc(N[C@@H]4CCCNC4)n3)c2nc1C(C)(C)O [Compound 2a, (R)-2-(6-methoxy-3-(2-(piperidin-3-ylamino)pyrimidin-4-yl)pyrazolo[1,5-a]pyrimidin-5-yl)propan-2-ol] |
| < 0.5 | – | 44 | 4 | – | 128 | 173 | COc1cn2ncc(-c3ccnc(N[C@@H]4CCCNC4)n3)c2nc1C1CC1 [Compound 9a, (R)-4-(5-cyclopropyl-6-methoxypyrazolo[1,5-a]pyrimidin-3-yl)-N-(piperidin-3-yl)pyrimidin-2-amine] |
